Results: ChEMBL document CHEMBL1130462, “New enone derivatives of oleanolic acid and ursolic acid as inhibitors of nitric oxide production in mouse macrophages” (Bioorg Med Chem Lett, 1997)

species: Mus musculus; assay: Compound was measured for its inhibitory activity on IFN-gamma-induced nitric oxide production in mouse macrophage; assay type: functional

| IC50 | SMILES |
| --- | --- |
| 0.015 µM | C[C@]12CCC(=O)C=C1CCC1[C@@H]2[C@@H](O)C[C@@]2(C)[C@H]1CC[C@]2(O)C(=O)CO (single isomer, unassigned) [HYDROCORTISONE] |

species: Mus musculus; assay: Inhibitory activity on IFN-gamma-induced nitric oxide production in mouse macrophage at a concentration of 0.1-40 uM; assay type: functional

| SMILES | IC50 |
| --- | --- |
| C[C@@H]1CC[C@]2(C(=O)O)CC[C@]3(C)C(=CC(=O)[C@@H]4[C@@]5(C)C=CC(=O)C(C)(C)[C@@H]5CC[C@]43C)C2[C@H]1C (stereo partly drawn) | 5.1 µM |
| CC1(C)CC[C@]2(C(=O)O)CC[C@]3(C)C(C(=O)C[C@@H]4[C@@]5(C)C=CC(=O)C(C)(C)[C@@H]5CC[C@]43C)C2C1 (stereo partly drawn) | 3.3 µM |
| CC1(C)CC[C@]2(C(=O)O)CC[C@]3(C)C(=CC(=O)[C@@H]4[C@@]5(C)C=CC(=O)C(C)(C)[C@@H]5CC[C@]43C)C2C1 (stereo partly drawn) | 1.8 µM |
| CC1(C)CC[C@]2(C(=O)O)CC[C@]3(C)C(=CC[C@@H]4[C@@]5(C)CC[C@H](O)C(C)(C)[C@@H]5CC[C@]43C)[C@@H]2C1 [OLEANOLIC_ACID] | 40 µM |
| CC1(C)CC[C@]2(C(=O)O)CC[C@]3(C)C(=CC[C@@H]4[C@@]5(C)C=C(O)C(=O)C(C)(C)[C@@H]5CC[C@]43C)C2C1 (stereo partly drawn) | 26.5 µM |
| CC1(C)CC[C@]2(C(=O)O)CC[C@]3(C)C(CC[C@@H]4[C@@]5(C)C=CC(=O)C(C)(C)[C@@H]5CC[C@]43C)C2C1 (stereo partly drawn) | 8.5 µM |

More lines, now with the values ahead:

| IC50 | SMILES |
| --- | --- |
| 40 µM | COC(=O)[C@]12CCC(C)(C)CC1C1=CC[C@@H]3[C@@]4(C)C=CC(=O)C(C)(C)[C@@H]4CC[C@@]3(C)[C@]1(C)CC2 (stereo partly drawn) |
| 37.1 µM | CC1(C)CC[C@]2(C(=O)O)CC[C@]3(C)C(=CC[C@@H]4[C@@]5(C)CCC(=O)C(C)(C)[C@@H]5CC[C@]43C)[C@@H]2C1 [OLEANONIC ACID] |
| 35.5 µM | CC1(C)CC[C@]2(C(=O)O)CC[C@]3(C)C(CC4OC45[C@@]4(C)C=CC(=O)C(C)(C)[C@@H]4CC[C@]53C)C2C1 (stereo partly drawn) |
| 30 µM | COC1=C[C@]2(C)[C@H]3CC=C4C5CC(C)(C)CC[C@]5(C(=O)O)CC[C@@]4(C)[C@]3(C)CC[C@H]2C(C)(C)C1=O (stereo partly drawn) |
| 17.6 µM | C[C@@H]1CC[C@]2(C(=O)O)CC[C@]3(C)C(=CC[C@@H]4[C@@]5(C)C=CC(=O)C(C)(C)[C@@H]5CC[C@]43C)C2[C@H]1C (stereo partly drawn) |
| 9.7 µM | CC1(C)CC[C@]2(C(=O)O)CC[C@]3(C)C(=C2C1)C=C[C@@H]1[C@@]2(C)C=CC(=O)C(C)(C)[C@@H]2CC[C@]13C |
| 6 µM | CC1(C)CC[C@]2(C(=O)O)CC[C@]3(C)C(=CC[C@@H]4[C@@]5(C)C=CC(=O)C(C)(C)[C@@H]5CC[C@]43C)C2C1 (stereo partly drawn) |
| 5.2 µM | CC1(C)CC[C@]2(C(=O)O)CC[C@]3(C)C(CC=C4[C@@]5(C)C=CC(=O)C(C)(C)[C@@H]5CC[C@]43C)C2C1 (stereo partly drawn) |
| 2.6 µM | CC1(C)CC[C@]2(C(=O)O)CC[C@]3(C)C(=C2C1)CC(=O)[C@@H]1[C@@]2(C)C=CC(=O)C(C)(C)[C@@H]2CC[C@]13C |
| 0.9 µM | CC1(C)CC[C@]2(C(=O)O)CC[C@]3(C)[C@H](C(=O)C=C4[C@@]5(C)C=CC(=O)C(C)(C)[C@@H]5CC[C@]43C)[C@@H]2C1 |

species: Mus musculus; assay: Compound was measured for its inhibitory activity on IFN-gamma-induced nitric oxide production in mouse macrophage; toxic at 5-10 uM; assay type: functional

| SMILES | IC50 |
| --- | --- |
| C[C@@H]1CC[C@]2(C(=O)O)CC[C@]3(C)C(=CC[C@@H]4[C@@]5(C)CC[C@H](O)C(C)(C)[C@@H]5CC[C@]43C)C2[C@H]1C (stereo partly drawn) | toxic at 5-10 uM |
